From paper PMC4259467, “Molecular Cloning, Characterization and Positively Selected Sites of the Glutathione S-Transferase Family from Locusta migratoria” (PLoS ONE, 2014)

Experiments:
Experiment in all cases: spectrophotometric GST assay, steady state
Type in all cases: biochemical
Settings in all cases: co-substrate GSH; pH and temperature not given; read-out: K m ^CDNB
LmGSTD4 = molecular target: T1, LmGSTD4 (Locusta migratoria, UniProt V9Q2Q3)
T1 construct: gene GSTd4; full-length ORF in pET28a, E. coli BL21(DE3), His-tag Ni-NTA purified
T1 sequence (V9Q2Q3 1-218): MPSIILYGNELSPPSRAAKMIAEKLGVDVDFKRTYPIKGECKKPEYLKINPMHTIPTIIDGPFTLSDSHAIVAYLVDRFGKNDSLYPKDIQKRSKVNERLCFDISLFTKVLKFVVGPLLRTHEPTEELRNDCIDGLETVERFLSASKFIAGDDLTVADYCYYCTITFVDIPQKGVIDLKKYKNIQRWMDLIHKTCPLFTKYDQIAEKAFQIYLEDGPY
Source text: spectrophotometric GST assay, steady state on LmGSTD4

LmGSTZ1 = molecular target: T2, LmGSTZ1 (Locusta migratoria, UniProt V9Q4A6)
T2 construct: gene GSTz1; full-length ORF in pET28a, E. coli BL21(DE3), His-tag Ni-NTA purified
T2 sequence (V9Q4A6 1-217): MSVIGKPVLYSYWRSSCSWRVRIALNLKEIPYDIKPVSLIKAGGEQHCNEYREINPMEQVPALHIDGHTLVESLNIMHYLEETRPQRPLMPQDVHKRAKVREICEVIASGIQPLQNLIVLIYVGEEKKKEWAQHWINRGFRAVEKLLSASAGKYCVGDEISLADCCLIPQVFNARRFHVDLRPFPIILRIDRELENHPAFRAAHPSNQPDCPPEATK
Source text: spectrophotometric GST assay, steady state on LmGSTZ1

LmGSTD1 = molecular target: T3, LmGSTD1 (Locusta migratoria, UniProt E7BTM5)
T3 construct: full-length ORF in pET28a, E. coli BL21(DE3), His-tag Ni-NTA purified
T3 sequence (E7BTM5 1-218): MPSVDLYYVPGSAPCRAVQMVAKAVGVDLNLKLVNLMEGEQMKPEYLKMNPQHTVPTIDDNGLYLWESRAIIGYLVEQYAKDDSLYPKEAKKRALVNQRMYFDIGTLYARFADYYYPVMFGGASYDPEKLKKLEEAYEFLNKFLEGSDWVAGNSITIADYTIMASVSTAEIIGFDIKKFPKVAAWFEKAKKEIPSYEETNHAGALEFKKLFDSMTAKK
Source text: spectrophotometric GST assay, steady state on LmGSTD1

LmGSTD5 = molecular target: T4, LmGSTD5 (Locusta migratoria, UniProt V9Q4A2)
T4 construct: gene GSTd5; full-length ORF in pET28a, E. coli BL21(DE3), His-tag Ni-NTA purified
T4 sequence (V9Q4A2 1-224): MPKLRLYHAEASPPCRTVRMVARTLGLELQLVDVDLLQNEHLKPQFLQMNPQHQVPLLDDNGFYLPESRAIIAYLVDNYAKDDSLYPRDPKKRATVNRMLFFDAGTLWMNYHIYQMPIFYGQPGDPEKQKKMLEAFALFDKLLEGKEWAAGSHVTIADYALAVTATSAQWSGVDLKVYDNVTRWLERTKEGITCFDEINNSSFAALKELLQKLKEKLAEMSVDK
Source text: spectrophotometric GST assay, steady state on LmGSTD5

LmGSTT2 = molecular target: T5, LmGSTT2 (Locusta migratoria, UniProt V9Q331)
T5 construct: gene GSTt2; full-length ORF in pET28a, E. coli BL21(DE3), His-tag Ni-NTA purified
T5 sequence (V9Q331 1-231): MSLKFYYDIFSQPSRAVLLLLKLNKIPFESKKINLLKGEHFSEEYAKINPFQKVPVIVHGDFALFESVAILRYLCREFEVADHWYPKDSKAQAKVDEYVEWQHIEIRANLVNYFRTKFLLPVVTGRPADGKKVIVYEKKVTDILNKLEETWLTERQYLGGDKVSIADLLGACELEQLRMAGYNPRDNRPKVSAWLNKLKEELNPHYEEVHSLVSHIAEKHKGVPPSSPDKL
Source text: spectrophotometric GST assay, steady state on LmGSTT2

LmGSTS5 = molecular target: T6, LmGSTS5 (Locusta migratoria, UniProt F4YUJ4)
T6 construct: full-length ORF in pET28a, E. coli BL21(DE3), His-tag Ni-NTA purified
T6 sequence (F4YUJ4 1-202): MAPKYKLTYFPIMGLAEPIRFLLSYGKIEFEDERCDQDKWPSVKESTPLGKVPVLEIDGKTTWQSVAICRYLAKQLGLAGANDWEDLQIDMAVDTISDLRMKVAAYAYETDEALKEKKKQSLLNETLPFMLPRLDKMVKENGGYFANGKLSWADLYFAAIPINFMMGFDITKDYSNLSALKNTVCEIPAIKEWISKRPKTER
Source text: spectrophotometric GST assay, steady state on LmGSTS5

LmGSTO2 = molecular target: T7, LmGSTO2 (Locusta migratoria, UniProt I3QKS2)
T7 construct: gene GSTo2; full-length ORF in pET28a, E. coli BL21(DE3), His-tag Ni-NTA purified
T7 sequence (I3QKS2 1-245): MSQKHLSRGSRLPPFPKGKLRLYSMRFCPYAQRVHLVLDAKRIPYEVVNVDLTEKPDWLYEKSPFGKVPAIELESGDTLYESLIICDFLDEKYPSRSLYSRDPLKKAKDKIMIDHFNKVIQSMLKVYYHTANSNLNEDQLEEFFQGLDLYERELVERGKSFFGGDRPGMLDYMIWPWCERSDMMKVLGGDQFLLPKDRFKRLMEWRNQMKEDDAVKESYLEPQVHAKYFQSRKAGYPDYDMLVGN
Source text: spectrophotometric GST assay, steady state on LmGSTO2

LmGSTE1 = molecular target: T8, LmGSTE1 (Locusta migratoria, UniProt V9Q4G7)
T8 construct: gene GSTe1; full-length ORF in pET28a, E. coli BL21(DE3), His-tag Ni-NTA purified
T8 sequence (V9Q4G7 1-222): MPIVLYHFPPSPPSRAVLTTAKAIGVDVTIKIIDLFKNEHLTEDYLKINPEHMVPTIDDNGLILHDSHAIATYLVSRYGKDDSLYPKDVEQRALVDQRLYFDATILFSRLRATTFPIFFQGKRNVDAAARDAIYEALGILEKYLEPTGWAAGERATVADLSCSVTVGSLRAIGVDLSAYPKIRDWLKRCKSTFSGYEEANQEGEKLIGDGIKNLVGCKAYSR
Source text: spectrophotometric GST assay, steady state on LmGSTE1

LmGSTS9 = molecular target: T9, LmGSTS9 (Locusta migratoria, UniProt V9Q315)
T9 construct: gene GSTs9; full-length ORF in pET28a, E. coli BL21(DE3), His-tag Ni-NTA purified
Source text: spectrophotometric GST assay, steady state on LmGSTS9

LmGSTS8 = molecular target: T10, LmGSTS8 (Locusta migratoria, UniProt V9Q487)
T10 construct: gene GSTs8; full-length ORF in pET28a, E. coli BL21(DE3), His-tag Ni-NTA purified
Source text: spectrophotometric GST assay, steady state on LmGSTS8

T9 sequence (V9Q315 1-204): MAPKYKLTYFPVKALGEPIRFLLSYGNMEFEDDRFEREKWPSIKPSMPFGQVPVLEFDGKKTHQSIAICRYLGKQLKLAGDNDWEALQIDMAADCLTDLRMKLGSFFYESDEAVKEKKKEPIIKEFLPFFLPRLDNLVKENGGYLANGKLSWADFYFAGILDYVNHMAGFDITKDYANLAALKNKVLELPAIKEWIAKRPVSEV
T10 sequence (V9Q487 1-204): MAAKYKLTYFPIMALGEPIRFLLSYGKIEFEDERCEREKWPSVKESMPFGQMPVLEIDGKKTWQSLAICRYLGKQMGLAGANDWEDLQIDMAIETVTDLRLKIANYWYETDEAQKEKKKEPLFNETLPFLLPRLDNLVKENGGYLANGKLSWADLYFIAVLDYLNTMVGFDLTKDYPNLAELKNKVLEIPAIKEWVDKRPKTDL

O=[N+]([O-])c1ccc(Cl)c([N+](=O)[O-])c1 [CDNB]
Km (LmGSTD4): 15 ± 2 µM
Km (LmGSTZ1): 452 ± 58 µM
Km (LmGSTD1): 139 ± 8 µM
Km (LmGSTD5): 21 ± 1 µM
Km (LmGSTT2): 393 ± 49 µM
Km (LmGSTS5): 253 ± 26 µM
Km (LmGSTO2): 841 ± 138 µM
Km (LmGSTE1): 7 ± 1 µM
Km (LmGSTS9): 351 ± 26 µM
Km (LmGSTS8): 100 ± 6 µM
